For assay [1], the system named is forearm of a human volunteer. Briefly: Human vasoconstriction (blanching) testing. Type of assay: in vivo. The settings on record: for AUC (sum of the individual vasoconstriction scores through 36 hours): compound alone; for vasoconstriction activity: tested alone; for effect on the vasoconstrictor activity of loteprednol etabonate: co-applied, 1:5 molar ratio loteprednol etabonate:enhancer, especially at the lower concentrations. The procedure:
Test compounds at varying mM concentrations as noted below were dissolved in ethanol/propylene glycol (9/1) solution, and 20 μL of the mixtures were applied to filter paper discs, 0.7 cm in diameter. After ethanol evaporation, each disc was attached to waterproof adhesive tape, then applied to the forearm of a human volunteer and left in place for 4 hours. Groups of 8 forearms were tested at each concentration. The intensity of vasoconstriction was judged at 2, 4, 6, 8, 10, 12, 18, 24 and 36 hours after removal of the discs.
The grading scale for the vasoconstriction activity was as follows: 0, normal skin; 1, slight pallor of indistinct outline; 2, pallor with at least two corners outlined; 3, even pallor with a clear outline of the application sites; 4, very intense pallor. The scores were totaled at each concentration at each time after removal to give a total score at each time interval and an overall total for each concentration. The higher the total score, the greater the blanching or anti-inflammatory effect.

The subject of assay [2] is forearms of human volunteers. Kind of assay: Further human vasoconstriction testing. Format: in vivo. The settings on record: for AUC (sum of the individual vasoconstriction scores through 24 hours): steroid 0.1 mM alone; for effect on the vasoconstriction activity of BEM-17V: BEM-17V 0.1 mM; for effect on the vasoconstriction activity of BEM-17V / effect on the vasoconstriction activity of LE: enhancer 0.1-0.5 mM; for effect on the vasoconstriction activity of LE: LE 0.1 mM; for synergism with LE: LE:enhancer ratios 1:1, 1:2, 1:3, 1:4 and 1:5. On the procedure:
The resultant LE and BEM-17V solutions were then mixed (1:1) with vehicle only, or with the Δ^1-CA or Δ^1-MeCA solutions, so that LE solutions (0.1 mM) and BEM-17V solutions (0.1 mM) containing various concentrations of Δ^1-CA (0 to 0.5 mM) or Δ^1-MeCA (0 to 0.5 mM) were obtained. The resultant mixtures (20 μl) were loaded onto circular patches (6.5 mm diameter) that were attached to a water impervious adhesive film (3M). After the evaporation of ethanol, the patches and film were applied to the forearms of human volunteers for 4 hours. […] The grading scale was as follows: 0, normal skin; 1, slight pallor; 2, pallor with at least two corners outlined; 3, even pallor with a clear outline of the application sites; 4, very intense pallor. […] As before, an overall total for each concentration was then obtained.

Another assay concerns the target T1, receptor (Rattus norvegicus, UniProt P06536).
T1 sequence (P06536 1-795): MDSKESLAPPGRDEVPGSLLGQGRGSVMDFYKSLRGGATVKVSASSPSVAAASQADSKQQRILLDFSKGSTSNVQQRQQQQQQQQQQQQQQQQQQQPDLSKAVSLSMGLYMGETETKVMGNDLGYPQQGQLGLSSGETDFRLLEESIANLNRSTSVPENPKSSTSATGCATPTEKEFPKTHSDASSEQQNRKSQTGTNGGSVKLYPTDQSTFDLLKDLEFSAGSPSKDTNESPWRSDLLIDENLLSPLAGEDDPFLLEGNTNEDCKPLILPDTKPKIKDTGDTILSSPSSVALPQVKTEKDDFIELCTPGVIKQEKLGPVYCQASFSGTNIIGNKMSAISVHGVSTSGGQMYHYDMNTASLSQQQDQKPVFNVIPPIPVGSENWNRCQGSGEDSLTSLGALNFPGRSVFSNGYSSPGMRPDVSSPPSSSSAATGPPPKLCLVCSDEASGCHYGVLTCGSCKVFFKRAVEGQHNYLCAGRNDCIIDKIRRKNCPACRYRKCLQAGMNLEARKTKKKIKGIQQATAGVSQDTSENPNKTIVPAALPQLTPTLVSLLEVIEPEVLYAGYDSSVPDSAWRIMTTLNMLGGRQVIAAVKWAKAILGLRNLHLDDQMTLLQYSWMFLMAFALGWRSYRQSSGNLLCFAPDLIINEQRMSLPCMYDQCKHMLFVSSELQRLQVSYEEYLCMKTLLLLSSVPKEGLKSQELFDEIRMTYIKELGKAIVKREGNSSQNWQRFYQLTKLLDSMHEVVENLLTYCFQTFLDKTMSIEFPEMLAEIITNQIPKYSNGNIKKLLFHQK
The settings on record: medium containing 10^−5M cortienic acid as competitor; cited from earlier work.

[3] abbreviates: control (0 mM) of the Δ^1-CA series.
Setting [4] is: control (0 mM) of the Δ^1-MeCA series.

These results are taken from US7923441B2, “Enhancement of activity and/or duration of action of soft anti-inflammatory steroids for topical or other local application” (priority 2003, dated 2011).

For the molecule `CCOC(=O)O[C@]1(C(=O)OCCl)CC[C@H]2[C@@H]3CCC4=CC(=O)C=C[C@]4(C)[C@H]3[C@@H](O)C[C@@]21C` [Loteprednol Etabonate, chloromethyl 17α-ethoxycarbonyloxy-11β-hydroxyandrosta-1,4-dien-3-one-17β-carboxylate, reference compound], the “AUC (sum of the individual vasoconstriction scores through 36 hours)” value is reported as 9 in assay [1] (0.1 mM, 20 μL on disc, 4 h application, 8 forearms); 39 in assay [1] (0.5 mM); 90 in assay [1] (1 mM); 117 in assay [1] (5 mM); 122 in assay [1] (10 mM). In addition, the vasoconstriction activity result in assay [1] is recorded as “significant activity”. The results for the “AUC (sum of the individual vasoconstriction scores through 24 hours)” value in assay [2] (setting [3]) and in assay [2] (setting [4]) were 99 and 114, respectively.
Regarding `CCOC(=O)OC1(C(=O)O)CCC2C3CCC4=CC(=O)C=CC4(C)C3C(O)CC21C` (stereo not drawn) [the corresponding 17α-ethyl carbonate, 17α-ethoxycarbonyloxy-11β-hydroxyandrost-1,4-dien-3-one-17β-carboxylic acid], the “intrinsic activity in receptor binding studies” value (shortened to “intrinsic activity”) at receptor is “inactive”.
Turning to `COC(=O)[C@@]1(O)CCC2C3CCC4=CC(=O)C=CC4(C)C3C(O)CC21C` (stereo partly drawn) [Δ^1-Cortienic Acid Methyl Ester, methyl 11β,17α-dihydroxyandrosta-1,4-dien-3-one-17β-carboxylate], the “effect on the vasoconstrictor activity of loteprednol etabonate” value in assay [1] is “significantly enhanced”. Besides, the “AUC (sum of the individual vasoconstriction scores through 36 hours)” value in assay [1] (0.5 mM), in assay [1] (2.5 mM), in assay [1] (5 mM), in assay [1] (25 mM) and in assay [1] (50 mM) was 0 in each case. In assay [1], the vasoconstriction activity result is reported as “neither Δ^1-cortienic acid nor Δ^1-cortienic acid methyl ester had any vasoconstriction activity”. The “effect on the vasoconstriction activity of BEM-17V” value in assay [2] is “no activity-increasing effect”. Moreover, in assay [2], the “effect on the vasoconstriction activity of LE” value was “increased the vasoconstriction activity of LE”. In addition, the “synergism with LE” value in assay [2] is given as “synergistic results”.
Regarding `CC12C=CC(=O)C=C1CCC1C2C(O)CC2(C)C1CC[C@]2(O)C(=O)O` (stereo partly drawn) [Δ^1-Cortienic Acid, 11β,17α-dihydroxyandrosta-1,4-dien-3-one-17β-carboxylic acid], the “effect on the vasoconstrictor activity of loteprednol etabonate” value in assay [1] is recorded as “significantly enhanced”. Further, the “AUC (sum of the individual vasoconstriction scores through 36 hours)” value in assay [1] (0.5 mM), in assay [1] (2.5 mM), in assay [1] (5 mM), in assay [1] (25 mM) and in assay [1] (50 mM) was 0 each time. Further, the vasoconstriction activity entry in assay [1] is “neither Δ^1-cortienic acid nor Δ^1-cortienic acid methyl ester had any vasoconstriction activity”. For the same molecule, the “effect on the vasoconstriction activity of BEM-17V” value in assay [2] is “no activity-increasing effect”. Further, the “effect on the vasoconstriction activity of LE” value in assay [2] is given as “increased the vasoconstriction activity of LE”. Besides, the “synergism with LE” value in assay [2] is “synergistic results”. Moreover, the “intrinsic activity” value at receptor was “inactive”.
Regarding “betamethasone 17-valerate [Betamethasone Valerate, reference compound]”, the “AUC (sum of the individual vasoconstriction scores through 24 hours)” value was determined as 107 in assay [2] (setting [3]) and 112 in assay [2] (setting [4]).
In the case of “chloromethyl 17α-ethoxycarbonyloxy-11β-hydroxyandrosta-1,4-dien-3-one-17β-carboxylate [Loteprednol Etabonate, reference compound]”, at receptor, the “intrinsic activity” value is “intrinsically active”.
